# Reference: patent publication US9561220B2, “Group of alkaloids, the novel autophagic enhancers for treatment of cancers and neurodegenerative conditions thereof” (Macau University of Science and Technology, priority 2014, dated 2017)
# Tests used:
# LC3-II = experiment: Detection of autophagic marker protein LC3 conversion (Western blot); assay type: cell-based, human; settings: HeLa cells, Western blot (FIG. 2b)
# Protocol: After treatments with […], isoliensinine, dauricine, cepharanthine, hernandezine and thalidezine, cells were harvested and lysed in RIPA buffer (Cell Signaling Technologies Inc., Beverly, Mass.). The cell lysates were then resolved by SDS-PAGE. After electrophoresis, the proteins from SDS-PAGE were transferred to nitrocellulose membrane which was then blocked with 5% non-fat dried milk for 60 minutes. The membrane was then incubated with LC3 primary antibodies (1:1000) in TBST overnight at 4° C. After that, the membrane was further incubated with HRP-conjugated secondary antibodies for 60 minutes. Finally, protein bands were visualized by using the ECL Western Blotting Detection Reagents (Invitrogen, Paisley, Scotland, UK).
# [1] = test system: mutant huntingtin aggregate (HDQ55); experiment: Mutant huntingtin aggregate by fluorescence imaging; assay type: cell-based; settings: PC 12 cells, fluorescence imaging (FIG. 8c)
# Protocol: PC 12 cells were transfected transiently with EGFP-HDQ55/74 plasmids for 24 h using Lipofectamine Plus LTX reagent (Invitrogen) according to the manufacturer's protocol. The transfected cells were then treated with […], isoliensinine, dauricine, cepharanthine, hernandezine and thalidezine for 24 h. The removal of mutant huntingtin, ([…]74) was then quantitated by immunoblotting with antibody against EGFP or by immunocytochemistry under fluorescence microscopy.
# [2] = test system: HeLa cells expressing GFP-LC3; experiment: GFP-LC3 puncta quantification in the presence of AMPK inhibitor compound C; assay type: cell-based, human; settings: compound C 5 μM, 24 hours (FIG. 5b)
# Protocol: GFP-LC3 puncta formation was quantified as previously described. In brief, HeLa cells expressing GFP-LC3 were treated with indicated concentrations of […], isoliensinine, dauricine, cepharanthine, hernandezine and thalidezine in the presence of AMPK inhibitor, compound C (CC, 5 μM), for 24 hours. The cells were then fixed in 4% paraformaldehyde for 20 minutes at room temperature and then rinsed with PBS. Slides were mounted with FluorSaveTM mounting media (Calbiochem) and examined by fluorescence microscopy. To quantify for autophagy, the percentage of cells with punctate GFP-LC3 fluorescence was calculated by counting the number of the cells with punctate GFP-LC3 fluorescence in GFP-positive cells. A minimum of 150 cells from 3 randomly selected fields were scored.
# [3] = test system: a panel of cancer and normal cells; experiment: GFP-LC3 puncta formation in a panel of cancer and normal cells; assay type: cell-based, human; settings: fluorescent microscopy (FIG. 2c)
# Protocol: GFP-LC3 puncta formation was quantified as previously described. In brief, GFP-LC3 transfected cells grown on coverslips in a 6-well plate were treated with or without 20 μM of […], 10 μM of isoliensinine, dauricine, cepharanthine, hernandezine or thalidezine for 4 hours, the cells were then fixed in 4% paraformaldehyde for 20 minutes at room temperature and then rinsed with PBS. Slides were mounted with FluorSaveTM mounting media (Calbiochem, San Diego, Calif.) and examined by fluorescence microscopy. The number of GFP-positive cells with GFP-LC3 puncta formation was examined under the Nikon ECLIPSE 80i microscope. Representative images were captured with CCD digital camera Spot RT3TM (Diagnostic Instruments, Inc., Melville, N.Y.). To quantify for autophagy, the percentage of cells with punctate GFP-LC3 fluorescence was calculated by counting the number of the cells with punctate GFP-LC3 fluorescence in GFP-positive cells. A minimum of 150 cells from 3 randomly selected fields was scored.
# [4] = test system: Atg7 wild-type mouse embryonic fibroblasts; experiment: GFP-LC3 puncta in Atg7 wild-type MEFs; assay type: cell-based; settings: 20 μM liensinine or 10 μM others, 24 h (FIGS. 4a to 4c)
# Protocol: GFP-LC3 puncta formation was quantified as previously described. In brief, both Atg7 wild-type (Atg7-wt or Atg7+/+) and deficient (Atg7-/-) mouse embryonic fibroblasts (MEFs) were transfected with GFP-LC3 plasmid and then grown on coverslips in a 6-well plate. The cells were then treated with 20 μM of […], 10 μM of isoliensinine, 10 μM of dauricine, 10 μM of cepharanthine, hernandezine or 10 μM of thalidezine. for 24 h. The cells were then fixed in 4% paraformaldehyde for 20 minutes at room temperature and then rinsed with PBS. Slides were mounted with FluorSaveTM mounting media (Calbiochem, San Diego, Calif.) and examined by fluorescence microscopy. The number of GFP-positive cells with GFP-LC3 puncta formation was examined under the Nikon ECLIPSE 80i microscope. Representative images were captured with CCD digital camera Spot RT3TM (Diagnostic Instruments, Inc., Melville, N.Y.). To quantify for autophagy, the percentage of cells with punctate GFP-LC3 fluorescence was calculated by counting the number of the cells with punctate GFP-LC3 fluorescence in GFP-positive cells. A minimum of 150 cells from 3 randomly selected fields were scored.
# [5] = test system: HeLa cells expressing GFP-LC3; experiment: GFP-LC3 puncta quantification in the presence of autophagic inhibitor 3-MA; assay type: cell-based, human; settings: 20 μM liensinine or 10 μM others, 3-MA 5 mM, 4 hours (FIG. 3)
# Protocol: GFP-LC3 puncta formation was quantified as previously described. In brief, HeLa cells expressing GFP-LC3 were treated with 20 μM of […], or 10 μM of isoliensinine, dauricine, cepharanthine, hernandezine or thalidezine in the presence of autophagic inhibitor, 3-methyl adenine (3-MA, 5 mM), for 4 hours. The cells were then fixed in 4% paraformaldehyde for 20 minutes at room temperature and then rinsed with PBS. Slides were mounted with FluorSaveTM mounting media (Calbiochem) and examined by fluorescence microscopy. To quantify for autophagy, the percentage of cells with punctate GFP-LC3 fluorescence was calculated by counting the number of the cells with punctate GFP-LC3 fluorescence in GFP-positive cells. A minimum of 150 cells from 3 randomly selected fields were scored.
# p70S6K = experiment: Detection of mTOR signaling marker proteins: p70S6K phosphorylation (Western blot); assay type: cell-based, human; settings: HeLa cells, 20 μM liensinine or 10 μM others (FIG. 5a)
# Protocol: HeLa cells treated with 20 μM of […], 10 μM of isoliensinine, 10 μM of dauricine, 10 μM of cepharanthine, 10 μM of hernandezine and 10 μM of thalidezine were harvested and lysed in RIPA buffer (Cell Signaling). The cell lysates were then resolved by SDS-PAGE. After electrophoresis, the proteins from SDS-PAGE were transferred to nitrocellulose membrane which was then blocked with 5% non-fat dried milk for 60 minutes. The membrane was then incubated with P-p70S6K, p70S6K, P-AMPK, AMPK and actin primary antibodies (1:1000) in TBST overnight at 4° C. respectively. After that, the membrane was further incubated with HRP-conjugated secondary antibodies for 60 minutes. Finally, protein bands were visualized by using the ECL Western Blotting Detection Reagents (Invitrogen).
Molecule,conversion of the autophagic marker LC3-II (LC3-II),formed mutant huntingtin aggregate (HDQ55) [1],compound-induced GFP-LC3 puncta formation in the presence of AMPK inhibitor (Compound C) [2],formation of GFP-LC3 puncta [3],GFP-LC3 puncta formation in wild type Atg7 cells [4],compound-induced GFP-LC3 puncta formation in the presence of autophagic inhibitor (3-MA) [5],downstream p70S6K phosphorylation (p70S6K)
COc1ccc2cc1Oc1ccc(cc1)C[C@H]1c3cc(c(OC)cc3CCN1C)Oc1c(OC)c(OC)c(OC)c3c1[C@H](C2)N(C)CC3 [hernandezine],induced,significantly reduced,significant reduction,increased,induce,significant reduction,concomitant reduction
thalidezine,induced,significantly reduced,significant reduction,increased,induce,significant reduction,concomitant reduction
COc1cc2c(cc1OC)[C@@H](Cc1ccc(O)c(Oc3cc4c(cc3OC)CCN(C)[C@@H]4Cc3ccc(O)cc3)c1)N(C)CC2 [liensinine],induced,significantly reduced,significant reduction,increased,induce,significant reduction,concomitant reduction
COc1ccc(C[C@@H]2c3cc(Oc4cc(C[C@@H]5c6cc(O)c(OC)cc6CCN5C)ccc4O)c(OC)cc3CCN2C)cc1 [isoliensinine],induced,significantly reduced,significant reduction,increased,induce,significant reduction,concomitant reduction
COc1cc2c(cc1OC)[C@@H](Cc1ccc(Oc3cc(C[C@@H]4c5cc(OC)c(OC)cc5CCN4C)ccc3O)cc1)N(C)CC2 [dauricine],induced,significantly reduced,significant reduction,increased,induce,significant reduction,concomitant reduction
